According to PMC11018872, “Dynamic inter-domain transformations mediate the allosteric regulation of human 5, 10-methylenetetrahydrofolate reductase” (Nature Communications, 2024):
Blank lines part the entries; values can stand above or below the compound they belong to.

Key:
Assay type in all cases: binding
[1] = target: T1, 5,10-methylenetetrahydrofolate reductase (MTHFR) (Homo sapiens, UniProt P42898); assay: cryo-EM structure at […] Å (SAM-bound state)
T1 construct: MTHFRFL aa 1–656

[2] = target: T1, 5,10-methylenetetrahydrofolate reductase (MTHFR); assay: ITC; cryo-EM structures at […] and […] Å
[3] = target: T1, 5,10-methylenetetrahydrofolate reductase (MTHFR); assay: ITC; cryo-EM structure at […] Å; DSF; HPLC activity assay

T1 sequence (P42898 whole entry, the tested form may be a part): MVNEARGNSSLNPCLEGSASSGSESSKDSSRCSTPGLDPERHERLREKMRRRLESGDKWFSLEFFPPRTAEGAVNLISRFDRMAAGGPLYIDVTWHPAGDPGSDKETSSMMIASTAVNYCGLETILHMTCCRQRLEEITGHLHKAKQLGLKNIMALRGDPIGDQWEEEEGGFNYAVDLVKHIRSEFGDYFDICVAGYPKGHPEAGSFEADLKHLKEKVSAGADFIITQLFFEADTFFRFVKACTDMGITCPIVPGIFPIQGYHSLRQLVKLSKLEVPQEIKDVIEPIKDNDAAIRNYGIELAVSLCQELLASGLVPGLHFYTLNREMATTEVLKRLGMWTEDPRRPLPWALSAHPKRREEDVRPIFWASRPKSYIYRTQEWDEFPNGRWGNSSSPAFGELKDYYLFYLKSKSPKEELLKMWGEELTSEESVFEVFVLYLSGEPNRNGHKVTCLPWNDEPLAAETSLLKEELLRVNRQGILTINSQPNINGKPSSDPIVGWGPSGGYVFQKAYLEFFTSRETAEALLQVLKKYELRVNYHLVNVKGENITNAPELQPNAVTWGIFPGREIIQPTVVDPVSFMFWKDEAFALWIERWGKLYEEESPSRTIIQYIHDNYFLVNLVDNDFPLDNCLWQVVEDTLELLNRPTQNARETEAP

SMILES: Cc1cc2nc3c(=O)[nH]c(=O)nc-3n(C[C@H](O)[C@H](O)[C@H](O)COP(=O)(O)OP(=O)(O)OC[C@H]3O[C@@H](n4cnc5c(N)ncnc54)[C@H](O)[C@@H]3O)c2cc1C [FAD, flavin adenine dinucleotide]
- cryo-EM structure at 2.9 Å (SAM-bound state) [1]: FAD was found in both CD active sites of the homodimer (Fig. 2c) with clear electron densities

- Kd [2]: 380 to 390 nM
SMILES: Nc1ncnc2c1ncn2[C@@H]1O[C@H](CSCC[C@H](N)C(=O)O)[C@@H](O)[C@H]1O [SAH, S-adenosyl-L-homocysteine]

- Kd [3]: 860 to 990 nM
SMILES: C[S+](CC[C@H](N)C(=O)[O-])C[C@H]1O[C@@H](n2cnc3c(N)ncnc32)[C@H](O)[C@@H]1O (stereo partly drawn) [SAM, S-adenosyl-L-methionine]
